From PubChem BioAssay AID180 (DTP/NCI, 2004) come the findings set out here.

Where “and” joins values, the source holds several entries; their conditions need not be identical. Equal entries are not always repeated.

For the assay, the system named is BDF1 mice, Adenocarcinoma 755 s.c., tumor weight T/C. Put plainly: NCI In Vivo Anticancer Drug Screen. Data for tumor model Adenocarcinoma 755 (subcutaneous) in B6D2F1 (BDF1) mice. The following applies: endpoint: mean tumor weight, higher = larger tumour. Summed up:
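Compound activity was tested in mice carrying transplanted tumors. Survival or tumor size was measured, and each value is the treated-group measurement divided by that of the vehicle-treated control group (T/C).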

Where [1] appears, read: dose: 3.1 mg/kg/injection, schedule: Q01DX011 (ip), vehicle: methylcellulose (MC).
Where [2] appears, read: dose: 6.25 mg/kg/injection, schedule: Q01DX011 (ip), vehicle: methylcellulose (MC).
Where [3] appears, read: dose: 12.5 mg/kg/injection, schedule: Q01DX011 (ip), vehicle: methylcellulose (MC).
Where [4] appears, read: dose: 25.0 mg/kg/injection, schedule: Q01DX011 (ip), vehicle: saline.
The mark [5] stands for this setting: dose: 50.0 mg/kg/injection, schedule: Q01DX011 (ip), vehicle: saline.
Where [6] appears, read: dose: 100.0 mg/kg/injection, schedule: Q01DX011 (ip), vehicle: saline.
The mark [7] stands for this setting: dose: 225.0 mg/kg/injection, schedule: Q01DX011 (ip), vehicle: methylcellulose (MC).
Setting [8] is: dose: 7.5 mg/kg/injection, schedule: Q01DX011 (ip), vehicle: saline.
Where [9] appears, read: dose: 15.0 mg/kg/injection, schedule: Q01DX011 (ip), vehicle: saline.
Where [10] appears, read: dose: 125.0 mg/kg/injection, schedule: Q01DX011 (ip), vehicle: methylcellulose (MC).
Where [11] appears, read: dose: 7.5 mg/kg/injection, schedule: Q01DX011 (ip), vehicle: methylcellulose (MC).

Broadly, the T/C is the result in the treated group divided by that in the control group, in per cent. Turning to `CCCSc1nc(N)nc2c1ncn2C1OC(CO)C(O)C1O` (configuration not stated), the T/C was 33 % of control under setting [1], 4 % of control under setting [2] and 2 % of control under setting [3].

As to `O=C(O)C(=O)O.[U]`, the T/C was 73 % of control (dose: 12.5 mg/kg/injection, schedule: Q01DX011 (ip), vehicle: other); 68 % of control (dose: 12.5 mg/kg/injection, schedule: Q01DX011 (ip), vehicle: saline); 50 % of control (dose: 25.0 mg/kg/injection, schedule: Q01DX011 (ip), vehicle: other); 39 % of control under setting [4]; 49 % of control (dose: 50.0 mg/kg/injection, schedule: Q01DX011 (ip), vehicle: other); 36 % of control under setting [5]. Further, the T/C under setting [6] was 25 % of control.

Take `O=S(=O)(Nc1ccccc1)c1ccc(C2CC3(Cl)C(Cl)=C(Cl)C2(Cl)C3(Cl)Cl)cc1` (configuration not stated): the T/C was 90 % of control and 109 % of control (dose: 28.12 mg/kg/injection, schedule: Q01DX011 (ip), vehicle: methylcellulose (MC)); 95 % of control and 107 % of control (dose: 112.5 mg/kg/injection, schedule: Q01DX011 (ip), vehicle: methylcellulose (MC)); 69 % of control under setting [7].

With `Ic1ncnc2c1ncn2C1CCCS1` (configuration not stated), the T/C runs as follows: (dose: 75.0 mg/kg/injection, schedule: Q01DX011 (ip), vehicle: methylcellulose (MC)) 150 % of control; under setting [7], 95 % of control.

On to `CCC(C)n1ncc2c(N(C)C)ncnc21` (configuration not stated), for which the T/C by setting is: (dose: 16.25 mg/kg/injection, schedule: Q01DX011 (ip), vehicle: saline) 54 % of control and 73 % of control; (dose: 32.5 mg/kg/injection, schedule: Q01DX011 (ip), vehicle: saline) 42 % of control and 46 % of control; (dose: 65.0 mg/kg/injection, schedule: Q01DX011 (ip), vehicle: saline) 6 % of control.

Consider `O=P1(N(CCF)CCF)NCCCO1` (configuration not stated), for which the T/C by setting is: (dose: 3.75 mg/kg/injection, schedule: Q01DX011 (ip), vehicle: saline) 62 % of control; under setting [8], 79 % of control; under setting [9], 26 % of control.

For the compound `CC(C)Sc1nc(N)nc2nc[nH]c12`, the T/C (dose: 1.0 mg/kg/injection, schedule: Q01DX011 (ip), vehicle: saline) was 41 % of control; the T/C (dose: 1.6 mg/kg/injection, schedule: Q01DX011 (ip), vehicle: methylcellulose (MC)) was 16 % of control; the T/C (dose: 3.0 mg/kg/injection, schedule: Q01DX011 (ip), vehicle: saline) is 41 % of control; the T/C under setting [1] is 11 % of control; the T/C (dose: 6.0 mg/kg/injection, schedule: Q01DX011 (ip), vehicle: saline) is 30 % of control; the T/C under setting [2] is 2 % of control. The T/C runs as follows: (dose: 12.0 mg/kg/injection, schedule: Q01DX011 (ip), vehicle: saline) 37 % of control; under setting [3], 1 % of control; under setting [4], 17 % of control; under setting [5], 4 % of control; under setting [6], 7 % of control; (dose: 125.0 micrograms/kg/injection, schedule: Q01DX011 (ip), vehicle: saline) 76 % of control. Moreover, the T/C is, setting by setting: (dose: 250.0 micrograms/kg/injection, schedule: Q01DX011 (ip), vehicle: saline) 77 % of control; (dose: 500.0 micrograms/kg/injection, schedule: Q01DX011 (ip), vehicle: saline) 52 % of control; (dose: 1000.0 micrograms/kg/injection, schedule: Q01DX011 (ip), vehicle: saline) 80 % of control.

Turning to `Nc1nc(=S)cc(Nc2ccccc2Cl)[nH]1`, the T/C by setting is: (dose: 31.0 mg/kg/injection, schedule: Q01DX011 (ip), vehicle: methylcellulose (MC)) 101 % of control; (dose: 62.0 mg/kg/injection, schedule: Q01DX011 (ip), vehicle: methylcellulose (MC)) 156 % of control; under setting [10], 93 % of control; (dose: 250.0 mg/kg/injection, schedule: Q01DX011 (ip), vehicle: methylcellulose (MC)) 122 % of control.

In the case of `CN(C)C1C(=O)C(C(N)=O)=C(O)C2(O)C(=O)C3=C(O)c4c(O)cccc4C(C)(O)C3C(O)C12` (configuration not stated), the T/C was 78 % of control (dose: 19.5 mg/kg/injection, schedule: Q01DX011 (ip), vehicle: carboxymethylcellulose (CMC)); 106 % of control (dose: 19.86 mg/kg/injection, schedule: Q01DX011 (ip), vehicle: carboxymethylcellulose (CMC)); 117 % of control (dose: 31.25 mg/kg/injection, schedule: Q01DX011 (ip), vehicle: methylcellulose (MC)); 91 % of control (dose: 39.0 mg/kg/injection, schedule: Q01DX011 (ip), vehicle: carboxymethylcellulose (CMC)); 81 % of control (dose: 50.0 mg/kg/injection, schedule: Q01DX011 (ip), vehicle: water); 46 % of control (dose: 62.4 mg/kg/injection, schedule: Q01DX011 (ip), vehicle: carboxymethylcellulose (CMC)). Also, the T/C (dose: 62.5 mg/kg/injection, schedule: Q01DX011 (ip), vehicle: methylcellulose (MC)) was 69 % of control; the T/C (dose: 63.56 mg/kg/injection, schedule: Q01DX011 (ip), vehicle: carboxymethylcellulose (CMC)) is 119 % of control; the T/C (dose: 78.0 mg/kg/injection, schedule: Q01DX011 (ip), vehicle: carboxymethylcellulose (CMC)) was 95 % of control and 110 % of control; the T/C (dose: 79.45 mg/kg/injection, schedule: Q01DX011 (ip), vehicle: carboxymethylcellulose (CMC)) is 92 % of control and 75 % of control and 87 % of control; the T/C (dose: 100.0 mg/kg/injection, schedule: Q01DX011 (ip), vehicle: water) is 45 % of control; the T/C (dose: 104.0 mg/kg/injection, schedule: Q01DX011 (ip), vehicle: carboxymethylcellulose (CMC)) is 65 % of control. Also, the T/C runs as follows: (dose: 105.93 mg/kg/injection, schedule: Q01DX011 (ip), vehicle: carboxymethylcellulose (CMC)) 96 % of control and 87 % of control; under setting [10], 73 % of control; (dose: 150.0 mg/kg/injection, schedule: Q01DX011 (ip), vehicle: water) 14 % of control.

With `Cc1ccccc1N=Nc1ccc(N=Nc2ccc(O)cc2)c(C)c1`, the T/C (dose: 1.87 mg/kg/injection, schedule: Q01DX011 (ip), vehicle: methylcellulose (MC)) is 74 % of control; the T/C (dose: 1.87 mg/kg/injection, schedule: Q01DX011 (ip), vehicle: saline) is 77 % of control; the T/C (dose: 3.25 mg/kg/injection, schedule: Q01DX011 (ip), vehicle: methylcellulose (MC)) was 89 % of control; the T/C (dose: 3.25 mg/kg/injection, schedule: Q01DX011 (ip), vehicle: saline) was 101 % of control; the T/C under setting [11] was 101 % of control; the T/C under setting [8] was 68 % of control. For the same compound, under setting [9], the T/C is 88 % of control.

Regarding `CCC(=O)NC`, the T/C reads like this: (dose: 45.0 mg/kg/injection, schedule: Q01DX011 (ip), vehicle: saline) 107 % of control; (dose: 175.0 mg/kg/injection, schedule: Q01DX011 (ip), vehicle: saline) 81 % of control; (dose: 350.0 mg/kg/injection, schedule: Q01DX011 (ip), vehicle: saline) 118 % of control; (dose: 625.0 mg/kg/injection, schedule: Q#A X022 (ip), vehicle: other) 6 % of control; (dose: 1000.0 mg/kg/injection, schedule: Q01DX011 (ip), vehicle: other) 11 % of control; (dose: 1500.0 mg/kg/injection, schedule: Q01DX011 (ip), vehicle: other) 6 % of control. Further, the T/C is 49 % of control (dose: 1560.0 mg/kg/injection, schedule: Q01DX011 (ip), vehicle: other) and 36 % of control (dose: 1750.0 mg/kg/injection, schedule: Q01DX011 (ip), vehicle: other).

With `FC(F)(F)c1nc(Cl)nc2c1ncn2Cc1ccccc1`, the T/C is, setting by setting: (dose: 30.0 mg/kg/injection, schedule: Q01DX011 (ip), vehicle: carboxymethylcellulose (CMC)) 56 % of control; (dose: 60.0 mg/kg/injection, schedule: Q01DX011 (ip), vehicle: carboxymethylcellulose (CMC)) 97 % of control; (dose: 120.0 mg/kg/injection, schedule: Q01DX011 (ip), vehicle: carboxymethylcellulose (CMC)) 97 % of control.

Turning to `Nc1nc(SCc2ccccc2)c2ncn(C3CCCO3)c2n1` (configuration not stated), the T/C (dose: 1.8 mg/kg/injection, schedule: Q01DX011 (ip), vehicle: methylcellulose (MC)) was 68 % of control; the T/C (dose: 3.7 mg/kg/injection, schedule: Q01DX011 (ip), vehicle: methylcellulose (MC)) is 45 % of control; the T/C under setting [11] was 2 % of control and 5 % of control; the T/C (dose: 20.0 mg/kg/injection, schedule: Q01DX011 (ip), vehicle: methylcellulose (MC)) is 2 % of control.
